# In patent US20240041898A9, “NEUROSTEROIDS AND ENANTIOMERS THEREOF FOR THE PREVENTION AND TREATMENT OF NEURODEGENERATIVE CONDITIONS” (priority 2019, published 2024):
# Like-named read-outs stand apart in the source and are kept apart here.
# Key:
# [1] = test system: pressure-loaded ex vivo rat retinas; type: cell-based; details: for retinal morphology with 3-MA alone: 10 mM
# Protocol: (§1) Rat ex vivo Eyecup Preparation—Rat ex vivo eyecups were prepared from 28-32 day old male Sprague-Dawley rats (Charles River Laboratories International Inc., Wilmington, MA). The anterior half of the enucleated eyes was carefully removed to make eyecup preparations. Eyecups were placed at the bottom of a 100 ml glass beaker filled with aCSF (artificial cerebrospinal fluid) containing (in mM): 124 NaCl, 5 KCl, 2 MgSO4, 2 CaCl2, 1.25 NaH2PO4, 22 NaHCO3, and 10 glucose, and incubated at 30° C. for 24 hours using a closed pressure-loading system (FIG. 1C). pH was maintained at 7.35 to 7.40. In the closed-pressure system, a glass beaker with the eyecup was placed at the bottom of an acrylic pressure chamber (2,000 ml volume). A 95% O2-5% CO2 gas mixture was delivered through disposable plastic tubing with an infusion valve and a control dial on the lid of the pressure chamber and an air filter (Cat #SLGP033RS, Merck Millipore, Billerica, MA). The plastic tubing delivering the gas terminated 1 cm above the bottom of the beaker.
# (§2) Acutely prepared eyecups were incubated in gassed aCSF for at least 1 h at 30° C. before pressure loading. In some experiments, AlloP (1 μM), ent-AlloP (1 μM), and 3-MA (10 mM) were dissolved in aCSF at the time of experiment and administered by bath perfusion. Eyecup preparations were treated with these drugs for 1 h at 30° C. before pressure loading. For pressure loading, the 95% O2-5% CO2 gas mixture was infused until the pressure reading given by a manometer reached the appropriate level. The pressure was then locked by adjusting the control dial of the effusion valve, and monitored continuously for 24 h at 30° C.
# Data analysis of morphometry—The middle portion of the retina was examined, greater than 1,200 μm away from the center of the optic disc along the inner limiting membrane (ILM). The nerve fiber layer thickness (NFLT) was measured by light microscopy along 5 lines perpendicular to the pigment epithelium at a distance of 15 μm from each other around 1,200 μm away from the center of the optic disc. The average NFLT was determined in 9 different light micrographs taken from 5 eyecup samples in each condition, divided by total retinal thickness, and mean±standard deviation (%) was analyzed and compared with control.
# The density of degenerated cells characterized by nuclear chromatin clumping or necrosis in the GCL was determined by counting 9 fields of 500 μm length in light micrographs taken from the block of the middle retinal part 950 to 1450 μm away from the center of the optic disc.
# The severity of neuronal damage was assessed by light microscopy using a neuronal damage score (NDS). The NDS was determined in 9 different light micrographs taken from 5 eyecup samples in each condition. The NDS rates neuronal damage in the inner nuclear layer (INL) and the inner plexiform layer (IPL) on a 0-4 scale with 0 signifying no neuronal damage and 4 indicating very severe damage. Criteria used in establishing the degree of neuronal damage included the extent of cytoplasmic swelling in the IPL and the number of neurons in the INL showing signs of severe cytoplasmic swelling and coarse clumping of nuclear chromatin. The highest NDS rating (4) is given when the IPL discloses apparent spongiform appearance due to dendritic swelling and when most cell bodies in the INL show severe cytoplasmic swelling and coarse clumping of nuclear chromatin. If the damage is of a lesser degree, a rating of 3 is given. NDS 2 is assigned when cell bodies in the INL are sporadically swollen. […] Fine dendritic swelling in a limited area of the IPL without damage in the INL is described by NDS 1.
# NFLT, density of degenerated cells in the GCL, and NDS were determined as the measurement of 10 different areas from three eyes per experimental condition. These morphometrical parameters were assessed by three raters, who remained unaware of the experimental condition. […]
# LC3-II = test: Ex vivo pressure-loaded retinas, Western blot of LC3-II; type: cell-based, rat; details: 10 mM 3-MA, 1 μM ent-AlloP, 75 mmHg
# Protocol: as §1, §2
# (§3) Western Blot Analysis—At the end of each experiment, the posterior segments of the eye were placed on a flat cutting surface and immersed in ice-cold aCSF. With a surgical blade, the retina was carefully and gently detached from the sclera with a fine forceps. The isolated retinas were frozen at −80° C. Retinas were then homogenized in lysis buffer solution (CelLytic MT; Sigma-Aldrich, Inc.) with protease inhibitor cocktail (Sigma-Aldrich, Inc.), prepared according to the manufacturer's instructions. The tissue extracts were ultrasonicated and clarified by centrifugation at 12,000 g for 20 minutes at 4° C. The protein concentrations in supernatants were assayed (Quant-iT assay kit; Invitrogen Corp., Carlsbad, CA). Twenty micrograms of retinal extract were subjected to SDS polyacrylamide gel electrophoretic analysis. The proteins were then transferred to a PVDF. Immunoblots by polyclonal rabbit anti-LC3B antibody (MBL Life Science) or anti-SQSTMl/p62 mouse monoclonal antibody (Abcam) were visualized using WesternBreeze Chemiluminescent Immunodetection system (Invitrogen) with the exposure time to autoradiograph film (MXJB Plus; Kodak, Rochester, NY) adjusted to avoid over- or undersaturation. Precision Plus Protein™ Western Standards (Bio-Rad, Hercules, CA) followed by Precision Protein™ strep Tactin-AP conjugate (Bio-Rad) was used for a molecular marker of LC3. MagicMark™ XP Western Protein Standard (Invitrogen, Carlsbad, CA) was used for a molecular marker of p62. Immunoblot data are normalized to β-actin levels in the same sample.
# (§4) The density of Western blot bands was quantified using Image-Pro Plus software. Quantification was adjusted to protein expression at 10 mmHg after normalization to the β-actin band at each pressure, and the relative gray-scale value was calculated by densitometric analysis of the obtained bands. At least four independent experiments were performed for each condition, and the results are presented as relative units numerically. Differences in expression levels were evaluated using Wilcoxon Rank-Sum Test, Tukey's or Dunnett's multiple comparison test. Sample numbers were four to five per each experimental condition.
# p62 = test: Ex vivo pressure-loaded retinas, Western blot of p62; type: cell-based, rat; details: 10 mM 3-MA, 1 μM ent-AlloP, 75 mmHg
# Protocol: as §1, §2
# as §3, with “MagicMark™ XP Western Protein Standard (Invitrogen, Carlsbad, CA) was used for a molecular marker of p62. Immunoblot data are normalized to β-actin levels in the same sample.” left out
# as §4, with “At least four independent experiments were performed for each condition, and the results are presented as relative units numerically.” left out, “Sample numbers were four to five per each experimental condition.” left out
Molecule,"effect of 3-MA on neuroprotection by AlloP ([1]; 10 mM 3-MA + 1 μM AlloP, 75 mmHg)","effect of 3-MA on the effects of ent-AlloP ([1]; 10 mM 3-MA + 1 μM ent-AlloP, 75 mmHg)",retinal morphology with 3-MA alone ([1]; 10 mmHg),retinal morphology with 3-MA alone ([1]; 75 mmHg),effect of 3-MA on upregulation of LC3-II levels induced by ent-AlloP (LC3-II),effect of 3-MA on the decrease of p62 levels induced by ent-AlloP (p62),"effect of picrotoxin on the neuroprotective effect of AlloP ([1]; 1 μM picrotoxin + 1 μM AlloP, hyperbaric conditions (75 mmHg))","effect of picrotoxin on the effects of ent-AlloP ([1]; 1 μM picrotoxin + 1 μM ent-AlloP, 75 mmHg)"
"Cn1cnc(N)c2ncnc1-2 [3-MA, 3-methyladenine]",did not alter neuroprotection by AlloP,dampened the effects of ent-AlloP,neurodegenerative,neurodegenerative,dampened,reversed,,
picrotoxin,,,,,,,overcame the neuroprotective effect of AlloP,did not alter the effects of ent-AlloP
